Measurements: patent US6548268B1, “Chromogenic medium for detecting Staphylococcus aureus” (priority 1999, dated 2003)

Tests used:
Staphylococcus aureus [1] = assay: Growth inhibition in the culture medium; assay type: cell-based; conditions: deferoxamine in the culture medium
Excerpt: The concentration used will preferably be between 0.010 and 0.100 g/l.

Staphylococcus aureus [2] = conditions: chromogenic agent in culture medium
Excerpt: (§1) The term “chromogenic agent” is understood to denote a compound which changes color in the presence of a specific strain, in particular under the effect of the enzymatic system of said strain.

Streptococcus strains = conditions: chromogenic agent in culture medium; a large number of Streptococcus strains
Excerpt: as §1

Compound	Inhibition of growth of Staphylococcus aureus (Staphylococcus aureus [1])	Staining in the presence of S. aureus (Staphylococcus aureus [2])	Staining of Streptococcus strains (Streptococcus strains)
CC(=O)N(O)CCCCCNC(=O)CCC(=O)N(O)CCCCCNC(=O)CCC(=O)N(O)CCCCCN [deferoxamine]	without inhibiting		
5-bromo-4-chloro-3-indoxyl glucuronide		negative	
5-bromo-4-chloro-3-indoxyl glucoside		without staining	stains blue
5-bromo-6-chloro-3-indoxyl phosphate		mauve staining	
5-bromo-4-chloro-3-indoxyl galactoside		negative	
